PubChem BioAssay AID2060620 (Molecular Pharmacology Branch, DTP, NCI, 2025)

Test system: 328373-195-R-J1-PDC complex spheroids, viability % test/control
Experiment: Anticancer human tumor 328373-195-R-J1-PDC patient-derived head and neck squamous carcinoma cell line growth inhibition [CLK]
Details: for IC50: curve of first compound; for viability, T/C: stronger effect = lower value
Outline: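 Patient-derived tumor cells grown as complex spheroids with HUVEC endothelial cells and mesenchymal stem cells, treated with drug combinations. Concentrations descend in half-log steps from near clinical Cmax, or from 10 microM if Cmax unknown.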
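Further: spheroids exposed to the agents for 7 days.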

For `CC(CO)NC(=O)c1cc(-c2ccc(Cl)cc2)nn(-c2cnn(C)c2)c1=O` (configuration not stated) + CNC(=O)c1ccc(Nc2nc(OC3CCCC3)c3c(-c4ccc5nc(C)oc5c4)c[nH]c3n2)c(OC)c1, the IC50 (second compound 0.0316 µM) was > 10 µM, the IC50 (second compound 0.1 µM) was < 0.0316 µM and the IC50 (second compound 0.316 µM) was < 0.0316 µM. For the same molecule, the IC50 (second compound 1 µM) was < 0.0316 µM, the IC50 (second compound 3.16 µM) was < 0.0316 µM and the IC50 (second compound 10 µM) was < 0.0316 µM. For the same molecule, the viability, T/C (second compound 0.0316 µM, first compound 0.0316 µM) was 76.2%, the viability, T/C (second compound 0.0316 µM, first compound 0.1 µM) was 80.8% and the viability, T/C (second compound 0.0316 µM, first compound 0.316 µM) was 73%. The viability, T/C (second compound 0.0316 µM, first compound 1 µM) was 90.8%, the viability, T/C (second compound 0.0316 µM, first compound 3.16 µM) was 73.6% and the viability, T/C (second compound 0.0316 µM, first compound 10 µM) was 62.9%. For the same molecule, the viability, T/C (second compound 0.1 µM, first compound 0.0316 µM) was 16.1%, the viability, T/C (second compound 0.1 µM, first compound 0.1 µM) was 12.2% and the viability, T/C (second compound 0.1 µM, first compound 0.316 µM) was 11.9%. It also gave a viability, T/C (second compound 0.1 µM, first compound 1 µM) of 14.1%, a viability, T/C (second compound 0.1 µM, first compound 3.16 µM) of 16.1% and a viability, T/C (second compound 0.1 µM, first compound 10 µM) of 12.8%. The viability, T/C (second compound 0.316 µM, first compound 0.0316 µM) was 10.9%, the viability, T/C (second compound 0.316 µM, first compound 0.1 µM) was 10.5% and the viability, T/C (second compound 0.316 µM, first compound 0.316 µM) was 11.2%. The viability, T/C (second compound 0.316 µM, first compound 1 µM) was 11.8%, the viability, T/C (second compound 0.316 µM, first compound 3.16 µM) was 11.4% and the viability, T/C (second compound 0.316 µM, first compound 10 µM) was 12%. The viability, T/C (second compound 1 µM, first compound 0.0316 µM) was 8.66%, the viability, T/C (second compound 1 µM, first compound 0.1 µM) was 9.73% and the viability, T/C (second compound 1 µM, first compound 0.316 µM) was 9.96%. It also gave a viability, T/C (second compound 1 µM, first compound 1 µM) of 10.2%, a viability, T/C (second compound 1 µM, first compound 3.16 µM) of 9.14% and a viability, T/C (second compound 1 µM, first compound 10 µM) of 8.61%. The viability, T/C (second compound 3.16 µM, first compound 0.0316 µM) was 13.6%, the viability, T/C (second compound 3.16 µM, first compound 0.1 µM) was 10.9% and the viability, T/C (second compound 3.16 µM, first compound 0.316 µM) was 8.97%. The viability, T/C (second compound 3.16 µM, first compound 1 µM) was 10.1%, the viability, T/C (second compound 3.16 µM, first compound 3.16 µM) was 12.7% and the viability, T/C (second compound 3.16 µM, first compound 10 µM) was 10.7%. The viability, T/C (second compound 10 µM, first compound 0.0316 µM) was 12.9%, the viability, T/C (second compound 10 µM, first compound 0.1 µM) was 9.53% and the viability, T/C (second compound 10 µM, first compound 0.316 µM) was 11.4%. For the same molecule, the viability, T/C (second compound 10 µM, first compound 1 µM) was 12.1%, the viability, T/C (second compound 10 µM, first compound 3.16 µM) was 13.2% and the viability, T/C (second compound 10 µM, first compound 10 µM) was 11.7%.
